According to publication PMC3004914, “Classification of Drugs Based on Properties of Sodium Channel Inhibition: A Comparative Automated Patch-Clamp Study” (PLoS ONE, 2010):
Values joined by “and” are separate entries in the source; they are usually repeats but may differ in a detail not shown here. Equal values may be shown once. Read-outs that look alike come from different tables or passages of the source.

How the values were obtained:
[1] = molecular target: T1, rNav1.2 sodium channels (HEK-293 cells) (Rattus norvegicus, UniProt P04775); assay: 5 Hz train protocol, QPatch automated patch-clamp; assay type: cell-based;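 for UD (use-dependence of the inhibition): UD = (A3/A4)/(A1/A2) as ratios of peak amplitudes from Figure 1A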
Summary of the method: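 rNav1.2 in stable HEK-293 cells, QPatch whole-cell; 5 Hz trains of five pulses from −90 to −10 mV, repeated every 20 s; 10 control trains, 10 with drug, then washout. Inhibition of peak current at a single concentration gave IC50; reversibility, use-dependence and τoff also derived.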

sodium channels [2] = conditions: cited from earlier work
[3] = molecular target: T1, rNav1.2 sodium channels (HEK-293 cells); assay: steady-state inactivation protocol (availability curves), QPatch automated patch-clamp; assay type: cell-based
Summary of the method: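 HEK-293 cells stably expressing rat Nav1.2, recorded by automated patch clamp in extracellular solution pH 7.3 containing CdCl2 and TEA. Availability measured with 400 ms pre-pulses from −150 to −30 mV, then a 10 ms test pulse to −10 mV. Kr, Ki (four-state model) and Kr/Ki state-dependence derived from inhibition and ΔV1/2.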

sodium channels [4] = conditions: cited from earlier work; for Ki: read-out: Ki−Lit; for Kd: read-out: Kr−Lit
[5] = human plasma, cited from earlier work
[6] = 300 μM, 3 s assigned where too short to be resolved
[7] = 300 μM, Rev = A5/A1 after washout
[8] = HEK293, read-out: IC50, calculated from Inh at single concentration 100 μM, −90 mV, 5 Hz train
[9] = HEK293, read-out: IC50, calculated from Inh at single concentration 300 μM, −90 mV, 5 Hz train
[10] = HEK293, read-out: Inh (inhibited fraction)
[11] = HEK293, read-out: Inh (inhibited fraction) at holding potential −150 mV
[12] = arithmetic mean, 300 µM, read-out: Ki-Kapp arith
[13] = arithmetic mean, 300 µM, read-out: Ki-ΔV1/2 arith
[14] = arithmetic mean, 300 µM, read-out: Kr arith
[15] = geometric mean, from Inh at −150 mV, 300 µM, read-out: Kr (resting state affinity)
[16] = geometric mean, from apparent affinity, 300 µM, read-out: Ki−Kapp (inactivated state affinity)
[17] = geometric mean, from shift of availability curve, 300 µM, read-out: Ki−ΔV1/2 (inactivated state affinity)
[18] = 30 μM, 500 s assigned where irreversible
[19] = HEK293, 30 μM, −90 mV holding potential, 5 Hz train, read-out: Inh (inhibited fraction)
[20] = HEK293, calculated from Inh at single concentration 30 μM, −90 mV, 5 Hz train, read-out: IC50
[21] = HEK293, 30 µM, read-out: Inh (inhibited fraction) at holding potential −150 mV
[22] = 100 μM, 500 s assigned where irreversible
[23] = 100 μM, Rev = A5/A1 after washout
[24] = HEK293, 100 μM, −90 mV holding potential, 5 Hz train, read-out: Inh (inhibited fraction)
[25] = HEK293, calculated from Inh at single concentration 100 μM, −90 mV, 5 Hz train, read-out: IC50
[26] = HEK293, 100 µM, read-out: Inh (inhibited fraction) at holding potential −150 mV
[27] = arithmetic mean, 100 µM, read-out: Ki-Kapp arith
[28] = arithmetic mean, 100 µM, read-out: Ki-ΔV1/2 arith
[29] = arithmetic mean, 100 µM, read-out: Kr arith
[30] = geometric mean, from Inh at −150 mV, 100 µM, read-out: Kr (resting state affinity)
[31] = geometric mean, from apparent affinity, 100 µM, read-out: Ki−Kapp (inactivated state affinity)
[32] = geometric mean, from shift of availability curve, 100 µM, read-out: Ki−ΔV1/2 (inactivated state affinity)

T1 sequence (P04775 whole entry): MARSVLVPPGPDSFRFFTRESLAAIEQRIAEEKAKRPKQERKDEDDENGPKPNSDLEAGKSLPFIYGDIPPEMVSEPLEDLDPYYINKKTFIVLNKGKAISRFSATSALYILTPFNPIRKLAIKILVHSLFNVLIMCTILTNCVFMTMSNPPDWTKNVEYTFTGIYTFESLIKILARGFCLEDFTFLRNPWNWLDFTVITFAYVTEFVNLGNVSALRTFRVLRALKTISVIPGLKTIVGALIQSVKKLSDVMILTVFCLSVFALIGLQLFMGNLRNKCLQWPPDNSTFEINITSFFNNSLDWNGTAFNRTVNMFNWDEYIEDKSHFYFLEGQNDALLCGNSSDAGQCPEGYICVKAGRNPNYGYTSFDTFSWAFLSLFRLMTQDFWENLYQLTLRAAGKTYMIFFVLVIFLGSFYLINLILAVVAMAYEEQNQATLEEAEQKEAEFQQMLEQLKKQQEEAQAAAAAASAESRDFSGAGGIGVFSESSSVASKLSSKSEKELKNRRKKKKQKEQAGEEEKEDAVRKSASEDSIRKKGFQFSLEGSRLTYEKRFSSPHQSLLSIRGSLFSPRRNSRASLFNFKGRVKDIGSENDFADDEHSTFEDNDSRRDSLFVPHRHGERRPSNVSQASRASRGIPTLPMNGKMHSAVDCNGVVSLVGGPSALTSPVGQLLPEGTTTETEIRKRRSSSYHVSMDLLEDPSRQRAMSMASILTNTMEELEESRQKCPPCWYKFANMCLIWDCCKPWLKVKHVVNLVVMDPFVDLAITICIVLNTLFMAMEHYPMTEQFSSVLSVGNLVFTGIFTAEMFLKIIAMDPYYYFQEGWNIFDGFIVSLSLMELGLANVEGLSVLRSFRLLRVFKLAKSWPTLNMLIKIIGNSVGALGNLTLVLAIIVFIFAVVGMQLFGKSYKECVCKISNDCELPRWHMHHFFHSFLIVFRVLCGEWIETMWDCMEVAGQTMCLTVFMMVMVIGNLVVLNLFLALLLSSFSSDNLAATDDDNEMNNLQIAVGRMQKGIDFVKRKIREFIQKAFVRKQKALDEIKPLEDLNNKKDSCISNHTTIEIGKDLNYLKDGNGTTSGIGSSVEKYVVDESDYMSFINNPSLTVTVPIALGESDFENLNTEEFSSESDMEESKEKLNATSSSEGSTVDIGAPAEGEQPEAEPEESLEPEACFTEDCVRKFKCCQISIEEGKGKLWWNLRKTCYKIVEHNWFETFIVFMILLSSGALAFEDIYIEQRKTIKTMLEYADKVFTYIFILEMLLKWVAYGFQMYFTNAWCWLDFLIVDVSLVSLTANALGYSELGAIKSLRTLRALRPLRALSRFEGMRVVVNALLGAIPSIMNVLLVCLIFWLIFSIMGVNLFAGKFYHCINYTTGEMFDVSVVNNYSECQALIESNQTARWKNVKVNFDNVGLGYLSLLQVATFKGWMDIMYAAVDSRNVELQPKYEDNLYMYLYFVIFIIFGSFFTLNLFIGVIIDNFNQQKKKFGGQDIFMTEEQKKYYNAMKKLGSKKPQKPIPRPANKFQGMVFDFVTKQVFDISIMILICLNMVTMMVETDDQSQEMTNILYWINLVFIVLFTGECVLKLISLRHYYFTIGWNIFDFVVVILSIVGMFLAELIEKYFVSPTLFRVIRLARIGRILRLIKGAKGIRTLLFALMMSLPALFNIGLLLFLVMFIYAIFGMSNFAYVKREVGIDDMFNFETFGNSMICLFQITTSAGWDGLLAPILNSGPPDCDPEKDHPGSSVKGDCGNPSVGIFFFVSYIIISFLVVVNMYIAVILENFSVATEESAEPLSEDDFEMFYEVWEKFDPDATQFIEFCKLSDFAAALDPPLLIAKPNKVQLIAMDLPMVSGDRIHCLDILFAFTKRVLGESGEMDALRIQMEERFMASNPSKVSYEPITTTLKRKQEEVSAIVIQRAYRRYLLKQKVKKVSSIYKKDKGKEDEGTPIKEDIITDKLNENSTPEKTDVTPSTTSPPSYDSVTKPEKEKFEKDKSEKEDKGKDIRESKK

CCN(CC)CC(=O)Nc1c(C)cccc1C [LID, Lidocaine]
τoff ([1]; 300 μM): 6 s | τon [1, 6]: 3 s | UD (use-dependence of the inhibition) ([1]; 300 μM, 5 Hz train): 1.14 | Rev (reversibility) [1, 7]: 0.95 | potency estimated from few doses [1, 8]: 1050 µM | potency estimated from few doses [1, 9]: 977 µM | potency estimated from few doses ([1]; HEK293, read-out: IC50, calculated from Inh at single concentration 1000 µM): 1270 µM | inhibition at 100 µM [1, 10]: 9% | inhibition at 300 µM [1, 10]: 23% | inhibition at 1000 µM [1, 10]: 44% | potency ([1]; in words): among the least potent SCIs | potency estimated from few doses ([1]; read-out: IC50, calculated from Inh at single concentration 300 μM, −90 mV, 5 Hz train): 1080 µM | criterion of at least 60% inhibition at 10 µM concentration (sodium channels [2]): failed to fulfill this criteria | inhibition at 300 µM [3, 11]: 9% | Ki [3, 12]: 70.3 µM | Ki [3, 13]: 114 µM | Kd [3, 14]: 3340 µM | Kd [3, 15]: 3190 µM | Ki [3, 16]: 65.7 µM | Ki [3, 17]: 89.6 µM

Nc1nnc(-c2cccc(Cl)c2Cl)c(N)n1 [LTG, Lamotrigine]
τoff ([1]; 300 μM): 18.1 s | τon [1, 6]: 8.19 s | UD (use-dependence of the inhibition) ([1]; 300 μM, 5 Hz train): 0.97 | Rev (reversibility) [1, 7]: 0.85 | potency estimated from few doses [1, 9]: 905 µM | inhibition at 300 µM [1, 10]: 25% | Ki (sodium channels [4]; averaged literature data): 15.1 µM | Kd (sodium channels [4]; averaged literature data): 1560 µM | criterion of at least 60% inhibition at 10 µM concentration (sodium channels [2]): failed to fulfill this criteria | plasma conc. ([5]; as printed in each cell): 2.5 [44] µg/ml | plasma conc. ([5]; as printed in the µg/ml cell): 9.762 µM | ΔV1/2 (shift of availability curve) ([3]; 300 μM): −10.3 mV | inhibition at 300 µM [3, 11]: 12% | Ki [3, 12]: 40.4 µM | Ki [3, 13]: 37.3 µM | Kd [3, 14]: 2330 µM | Kd [3, 15]: 2270 µM | Ki [3, 16]: 36.7 µM | Ki [3, 17]: 31.3 µM

Fc1ccc([C@@H]2CCNC[C@H]2COc2ccc3c(c2)OCO3)cc1 [PRX, Paroxetine]
τon ([1]; 30 μM): 32.07 s | UD (use-dependence of the inhibition) ([1]; 30 μM, 5 Hz train): 1.46 | τoff [1, 18]: 35.99 s | Rev (reversibility) ([1]; 30 μM, Rev = A5/A1 after washout): 0.34 | inhibition at 30 µM [1, 19]: 65% | potency estimated from few doses [1, 20]: 16.2 µM | Ki (sodium channels [4]; averaged literature data): 1.45 µM | Kd (sodium channels [4]; averaged literature data): 17 µM | plasma conc. ([5]; as printed in each cell): 0.38 [44] µg/ml | ΔV1/2 (shift of availability curve) ([3]; 30 μM): −11.4 mV | inhibition at 30 µM [3, 21]: 55% | Ki ([3]; arithmetic mean, 30 µM, read-out: Ki-Kapp arith): 1.63 µM | Ki ([3]; arithmetic mean, 30 µM, read-out: Ki-ΔV1/2 arith): 8.99 µM | Kd ([3]; arithmetic mean, 30 µM, read-out: Kr arith): 32.1 µM | Kd ([3]; geometric mean, from Inh at −150 mV, 30 µM, read-out: Kr (resting state affinity)): 24.2 µM | Ki ([3]; geometric mean, from apparent affinity, 30 µM, read-out: Ki−Kapp (inactivated state affinity)): 0.73 µM | Ki ([3]; geometric mean, from shift of availability curve, 30 µM, read-out: Ki−ΔV1/2 (inactivated state affinity)): 1.99 µM

COc1ccccc1OCC(O)CN1CCN(CC(=O)Nc2c(C)cccc2C)CC1 (stereo not shown) [RAN, Ranolazine]
τon ([1]; 100 μM): 8.13 s | UD (use-dependence of the inhibition) ([1]; 100 μM, 5 Hz train): 1.21 | τoff [1, 22]: 13.24 s | Rev (reversibility) [1, 23]: 0.89 | inhibition at 100 µM [1, 24]: 16% | potency estimated from few doses [1, 25]: 355 µM | (IC50/Ki) / (Kr/Ki) ratio ([1]; from IC50 (5 Hz train) and Kr, Ki (steady-state inactivation)): 0.94 | Ki (sodium channels [4]; averaged literature data): 75 µM | Kd (sodium channels [4]; averaged literature data): 1000 µM | plasma conc. ([5]; as printed in each cell): 3.59 [52] µg/ml | plasma conc. ([5]; as printed in the µg/ml cell): 7.173 µM | ΔV1/2 (shift of availability curve) ([3]; 300 μM): −5.52 mV | inhibition at 300 µM ([3]; HEK293, 300 µM, read-out: Inh (inhibited fraction) at holding potential −150 mV): 42% | Ki [3, 12]: 19.7 µM | Ki [3, 13]: 77.9 µM | Kd [3, 14]: 587 µM | Kd [3, 15]: 435 µM | Ki [3, 16]: 10.7 µM | Ki [3, 17]: 66.8 µM

Nc1nc2ccc(OC(F)(F)F)cc2s1 [RIL, Riluzole]
Rev (reversibility) [1]: 0.52 | τon ([1]; 30 μM): 3.9 s | UD (use-dependence of the inhibition) ([1]; 30 μM, 5 Hz train): 0.95 | τoff [1, 18]: 17.6 s | use-dependence (UD) ([1]; 5 Hz train): no use-dependence | inhibition at 30 µM [1, 19]: 27% | potency estimated from few doses [1, 20]: 81 µM | Ki (sodium channels [4]; averaged literature data): 0.49 µM | Kd (sodium channels [4]; averaged literature data): 62.4 µM | plasma conc. ([5]; as printed in each cell): 0.17 [44] µg/ml | plasma conc. ([5]; as printed in the µg/ml cell): 0.739 µM | inhibition at 30 µM [3, 21]: 8% | inhibition at 100 µM [3, 26]: 22%

C[Si](C)(Cc1ccc(F)cc1)CN1CCCCC1 [SIL, Silperisone]
τon ([1]; 100 μM): 4.1 s | UD (use-dependence of the inhibition) ([1]; 100 μM, 5 Hz train): 1.16 | τoff [1, 22]: 15.21 s | Rev (reversibility) [1, 23]: 0.8 | Inh (inhibited fraction) ([1]; 100 μM, −90 mV holding potential, 5 Hz train): 0.45 | potency estimated from few doses ([1]; calculated from Inh at single concentration 100 μM, −90 mV, 5 Hz train, read-out: IC50): 121 µM | Ki (sodium channels [4]; averaged literature data): 34.9 µM | Kd (sodium channels [4]; averaged literature data): 340 µM | plasma conc. ([5]; as printed in each cell): 0.45 [56] µg/ml | plasma conc. ([5]; as printed in the µg/ml cell): 1.484 µM | Inh (inhibited fraction) at holding potential −150 mV ([3]; 100 μM): 0.43 | ΔV1/2 (shift of availability curve) ([3]; 100 μM): −7.66 mV | Ki [3, 27]: 7.08 µM | Ki [3, 28]: 14.6 µM | Kd [3, 29]: 135 µM | Kd [3, 30]: 133 µM | Ki [3, 31]: 6.7 µM | Ki [3, 32]: 14 µM

Cc1ccc(C(=O)C(C)CN2CCCCC2)cc1 (stereo not shown) [TOL, Tolperisone]
τon ([1]; 100 μM): 5.57 s | UD (use-dependence of the inhibition) ([1]; 100 μM, 5 Hz train): 1.14 | τoff [1, 22]: 7.42 s | Rev (reversibility) [1, 23]: 0.95 | inhibition at 100 µM [1, 24]: 23% | potency estimated from few doses [1, 25]: 336 µM | Ki (sodium channels [4]; averaged literature data): 5.07 µM | Kd (sodium channels [4]; averaged literature data): 384 µM | plasma conc. ([5]; as printed in each cell): 0.43 [57] µg/ml | plasma conc. ([5]; as printed in the µg/ml cell): 1.508 µM | ΔV1/2 (shift of availability curve) ([3]; 100 μM): −6.47 mV | inhibition at 100 µM [3, 26]: 21% | Ki [3, 27]: 24.3 µM | Ki [3, 28]: 43.2 µM | Kd [3, 29]: 399 µM | Kd [3, 30]: 391 µM | Ki [3, 31]: 21 µM and 21.1 µM | Ki [3, 32]: 30.9 µM

COc1ccc(C(CN(C)C)C2(O)CCCCC2)cc1 (stereo not shown) [VFX, Venlafaxine]
τon ([1]; 100 μM): 4.85 s | UD (use-dependence of the inhibition) ([1]; 100 μM, 5 Hz train): 1.05 | τoff [1, 22]: 5.2 s | Rev (reversibility) [1, 23]: 0.89 | potency estimated from few doses [1, 8]: 727 µM | inhibition at 100 µM [1, 10]: 12% | Ki (sodium channels [4]; averaged literature data): 0.64 µM | Kd (sodium channels [4]): 8 µM | plasma conc. ([5]; as printed in each cell): 0.17 [44] µg/ml | plasma conc. ([5]; as printed in the µg/ml cell): 0.532 µM | ΔV1/2 (shift of availability curve) ([3]; 100 μM): −4.66 mV | inhibition at 100 µM [3, 11]: 11% | Ki ([3]; Ki-Kapp arith, arithmetic mean, 100 µM): 72.8 µM | Ki ([3]; Ki-ΔV1/2 arith, arithmetic mean, 100 µM): 75.8 µM | Ki ([3]; Ki−Kapp (inactivated state affinity), geometric mean, from apparent affinity, 100 µM): 63.4 µM | Ki ([3]; Ki−ΔV1/2 (inactivated state affinity), geometric mean, from shift of availability curve, 100 µM): 59.5 µM | Kd ([3]; Kr (resting state affinity), geometric mean, from Inh at −150 mV, 100 µM): 889 µM | Kd ([3]; Kr arith, arithmetic mean, 100 µM): 1000 µM
